Reference: patent US12459967B2, “Modulators of 5′-nucleotidase, ecto and the use thereof” (Arcus Biosciences, Inc., priority 2016, dated 2025)

Biological target: T1, human CD73 (Homo sapiens, UniProt P21589)
T1 construct: host or cells: CHO-K1 (suspension pool CHO-CD73)
T1 sequence (P21589 27-549): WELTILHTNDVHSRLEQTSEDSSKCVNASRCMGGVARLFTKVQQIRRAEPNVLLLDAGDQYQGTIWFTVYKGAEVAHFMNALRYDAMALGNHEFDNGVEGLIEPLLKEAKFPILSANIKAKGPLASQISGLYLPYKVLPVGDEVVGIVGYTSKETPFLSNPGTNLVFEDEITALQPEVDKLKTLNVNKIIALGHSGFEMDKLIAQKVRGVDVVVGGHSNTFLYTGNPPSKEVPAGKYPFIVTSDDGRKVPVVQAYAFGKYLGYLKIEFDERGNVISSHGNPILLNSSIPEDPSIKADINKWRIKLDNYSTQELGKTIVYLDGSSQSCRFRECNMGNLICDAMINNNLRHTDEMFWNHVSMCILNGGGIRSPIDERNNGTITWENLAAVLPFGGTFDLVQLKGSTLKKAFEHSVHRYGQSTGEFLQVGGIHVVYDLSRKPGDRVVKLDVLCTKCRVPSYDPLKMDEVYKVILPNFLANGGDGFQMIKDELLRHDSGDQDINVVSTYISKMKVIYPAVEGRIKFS
Test: Inhibition of ecto-5′-nucleotidase (CD73) activity in CHO-CD73 cells, phosphate colorimetric readout
Assay type: cell-based
Details: CHO-K1 cells stably transfected with human CD73, 2500 cells per well, 25 μM AMP substrate, 50 minutes incubation at 37° C.; read-out: Potency: CD73 IC50
Method: Inhibition of Ecto-5′-nucleotidase Activity. Compounds were evaluated to determine their ecto-5′-nucleotidase (CD73) inhibitory activity. Briefly, CHO-K1 cells stably transfected with human CD73 were generated by LakePharma (Belmont, CA) using molecular cloning of human CD73 (http://www.uniprot.org/uniprot/P21589) and mammalian transient expression vector (P21589.1). After antibiotic selection in CD OptiCHO cell media (Invitrogen, Catalog #12681-011) containing 5 μg/mL Puromycin and 200 μg/mL Hygromycin B, a suspension pool of CHO-CD73 cells was collected and frozen in 7.5% DMSO in cell media without antibiotics.
On the day of the experiment, one vial of CHO-CD73 cells was thawed and suspended in assay media which consisted of 20 mM HEPES, pH 7.4, 137 mM NaCl, 5.4 mM KCl, 1.3 mM CaCl2), 4.2 mM NaHCO3 and 0.1% glucose. To test the ability of compounds to inhibit CD73 enzymatic activity, 2 μL of 500 μM of compounds dissolved in DMSO (50×) were added to a 96-well polystyrene plate containing 58 μL of assay buffer. Next, 20 μL of CHO-CD73 cells in assay buffer were added to assay plate followed by 20 μL of 125 μM AMP (Adenosine 5′-monophosphate monohydrate) in assay buffer. Final assay conditions consisted of 2500 cells per well in 2% DMSO and 25 μM of AMP substrate. After 50 minutes of incubation (37° C. and 5% CO2) and centrifugation at 225×g for 5 mins, 80 μL of supernatant were transferred to a 96-well Spectra Plate (PerkinElmer, cat #6005640) which was pre-dispensed with 20 μL of PiColorLock Gold colorimetric assay reagents (Thermo, cat #30 300 30). The amount of inorganic phosphate was determined by reading the absorbance at 620 nm on an EnVision Multilabel Plate Reader (PerkinElmer). Enzymatic activity of CD73 was based on the amount of phosphate generated. Percentage of activity was calculated based on DMSO and no cells control wells. IC50 values of compounds were determined by four parameter non-linear regression fitting of percentage of activity in GraphPad Prism software.

SMILES	IC50
CN(c1nc(Cl)nc2c1ncn2[C@@H]1O[C@H](COP(=O)(CP(=O)(Oc2ccc(Cl)c(Cl)c2)Oc2ccc(Cl)c(Cl)c2)Oc2ccc(Cl)c(Cl)c2)[C@@H](O)[C@H]1O)C1CCCC1 (stereo partly shown)	> 1000 nM
C[C@H](Nc1nc(Cl)nc2c1ccn2[C@@H]1O[C@H](COP(=O)(O)CP(=O)(O)O)[C@@H](O)[C@@H]1F)c1ccc(F)cc1	< 100 nM
O=P(O)(O)CP(=O)(O)OC[C@H]1O[C@@H](n2ncc3c(NC4CCCC4)ncnc32)[C@H](O)[C@@H]1O	< 100 nM
O=P(O)(O)CP(=O)(O)OC[C@H]1O[C@@H](n2ccc3c(NC4CCCC4)nc(Cl)nc32)[C@@H](F)[C@@H]1O	< 100 nM
O=P(O)(O)CP(=O)(O)OC[C@H]1O[C@@H](n2cnc3c(NCc4ccc(-c5ccccc5)cc4)ncnc32)[C@H](O)[C@@H]1O	< 100 nM
CN(Cc1ccccc1Cl)c1nc(Cl)nc2c1cnn2[C@@H]1O[C@H](COP(=O)(O)CP(=O)(O)O)[C@@H](O)[C@H]1O	< 100 nM
COP(=O)(O)CP(=O)(O)OC[C@H]1O[C@@H](n2cnc3c(NC4CCCC4)nc(Cl)nc32)[C@H](O)[C@@H]1O	100 to 1000 nM
O=P(O)(O)CP(=O)(O)OC[C@H]1O[C@@H](n2cnc3c(NCc4ccccc4Cl)nc(Cl)nc32)[C@@H](F)[C@@H]1O	< 100 nM
O=P(O)(O)CP(=O)(O)OC[C@H]1O[C@@H](n2cnc3c(NCC4CC4)nc(Cl)nc32)[C@@H](F)[C@@H]1O	< 100 nM
C[C@@H](Nc1cc(Cl)nc2c1cnn2[C@@H]1O[C@H](COP(=O)(O)CP(=O)(O)O)[C@@H](O)[C@@H]1F)c1ccccc1	< 100 nM
C[C@@H](Nc1nc(Cl)nc2c1ncn2[C@@H]1O[C@H](COP(=O)(O)CP(=O)(O)O)[C@@H](O)[C@@H]1F)c1ccccc1	< 100 nM
CC(C)Nc1nc(Cl)nc2c1ncn2[C@@H]1O[C@H](COP(=O)(O)CP(=O)(O)O)[C@@H](O)[C@@H]1F	< 100 nM
CC(C)S(=O)(=O)c1nc(NCc2ccccc2)c2ncn([C@@H]3O[C@H](COP(=O)(O)CP(=O)(O)O)[C@@H](O)[C@H]3O)c2n1	100 to 1000 nM
CCCc1nc(NCc2ccccc2)c2ncn([C@@H]3O[C@H](COP(=O)(O)CP(=O)(O)O)[C@@H](O)[C@H]3O)c2n1	< 100 nM
C[C@@H](Nc1nc(Cl)nc2c1cnn2[C@@H]1O[C@H](COP(=O)(O)CP(=O)(O)O)[C@@H](O)[C@H]1O)c1ccccc1F	< 100 nM
C=Cc1nc(NCc2ccccc2)c2ncn([C@@H]3O[C@H](COP(=O)(O)CP(=O)(O)O)[C@@H](O)[C@H]3O)c2n1	< 100 nM
COP(=O)(O)CP(=O)(OC)OC[C@H]1O[C@@H](n2cnc3c(N(C)C4CCCC4)nc(Cl)nc32)[C@@H](F)[C@@H]1O (stereo partly shown)	> 1000 nM
O=P(O)(O)CP(=O)(O)OC[C@H]1O[C@@H](n2cnc3c(NC4CCCC4)nc(CN4CCCCC4)nc32)[C@@H](F)[C@@H]1O	100 to 1000 nM
Cc1nc(NC2CCCC2)c2ncn([C@@H]3O[C@H](COP(=O)(O)CP(=O)(O)O)[C@@H](O)[C@@H]3F)c2n1	< 100 nM
C[C@H](Nc1nc(Cl)nc2c1cnn2[C@@H]1O[C@H](COP(=O)(O)CP(=O)(O)O)[C@@H](O)[C@@H]1F)c1ccc(F)cc1	< 100 nM
O=P(O)(O)CP(=O)(O)OC[C@H]1O[C@@H](n2cnc3c(N4CCOCC4)nc(Cl)nc32)[C@@H](F)[C@@H]1O	< 100 nM
Nc1nc(F)nc2c1ncn2[C@@H]1O[C@H](COP(=O)(O)CP(=O)(O)O)[C@@H](O)[C@@H]1O	100 to 1000 nM
CC(C)Nc1nc(Cl)nc2c1ncn2[C@@H]1O[C@H](COP(=O)(O)CP(=O)(O)O)[C@@H](O)[C@H]1O	< 100 nM
C[C@H](Nc1nc(Cl)nc2c1cnn2[C@@H]1O[C@H](COP(=O)(O)CP(=O)(O)O)[C@@H](O)[C@@H]1F)c1cccc(F)c1	< 100 nM
O=P(O)(O)CP(=O)(O)OC[C@H]1O[C@@H](n2cnc3c(NC4CCCC4)nc(Cl)nc32)[C@@H](F)[C@@H]1O	< 100 nM
O=P(O)(O)CP(=O)(O)OC[C@H]1O[C@@H](n2cnc3c(NCc4ccc(C(F)(F)F)cc4)ncnc32)[C@H](O)[C@@H]1O	< 100 nM

SMILES	IC50
O=P(O)(O)CP(=O)(O)OC[C@H]1O[C@@H](n2cnc3c(NC4CCCC4)nc(C(O)C4CCOCC4)nc32)[C@@H](F)[C@@H]1O (stereo partly shown)	100 to 1000 nM
C[C@H](Nc1cc(Cl)nc2c1cnn2[C@@H]1O[C@H](COP(=O)(O)CP(=O)(O)O)[C@@H](O)[C@@H]1F)c1ccccc1	< 100 nM
C[C@@H](Nc1nc(Cl)nc2c1cnn2[C@@H]1O[C@H](COP(=O)(O)CP(=O)(O)O)[C@@H](O)[C@@H]1F)c1cccc(F)c1	< 100 nM
CN(c1nc(Cl)cc2c1ncn2[C@@H]1O[C@H](COP(=O)(O)CP(=O)(O)O)[C@@H](O)[C@@H]1F)C1CCCC1	< 100 nM
C[C@@H](Nc1nc(Cl)nc2c1cnn2[C@@H]1O[C@H](COP(=O)(O)CP(=O)(O)O)[C@@H](O)[C@@H]1F)c1ccccc1F	< 100 nM
O=P(O)(O)CP(=O)(O)OC[C@H]1O[C@@H](n2cnc3c(N4Cc5ccccc5C4)nc(Cl)nc32)[C@@H](F)[C@@H]1O	< 100 nM
CN(c1nc(Cl)nc2c1ncn2[C@@H]1O[C@H](COP(=O)(O)CP(=O)(O)O)[C@@H](O)[C@@H]1F)C1CCCC1	< 100 nM
Cc1nc(NCc2ccccc2)c2ncn([C@@H]3O[C@H](COP(=O)(O)CP(=O)(O)O)[C@@H](O)[C@@H]3F)c2n1	< 100 nM
O=P(O)(O)CP(=O)(O)OC[C@H]1O[C@@H](n2cnc3c(NCc4ccc(F)cc4)nc(Cl)nc32)[C@@H](F)[C@@H]1O	< 100 nM
O=P(O)(O)CP(=O)(O)OC[C@H]1O[C@@H](n2ncc3c(NCc4ccccc4Cl)nc(Cl)nc32)[C@H](O)[C@@H]1O	< 100 nM
O=P(O)(O)CP(=O)(O)OC[C@H]1O[C@@H](n2cnc3c(NCc4ccc(Br)cc4)ncnc32)[C@H](O)[C@@H]1O	< 100 nM
C=CCc1nc(NCc2ccccc2)c2ncn([C@@H]3O[C@H](COP(=O)(O)CP(=O)(O)O)[C@@H](O)[C@H]3O)c2n1	< 100 nM
CN(c1nc(Cl)nc2c1cnn2[C@@H]1O[C@H](COP(=O)(O)CP(=O)(O)O)[C@@H](O)[C@H]1O)C1CCCC1	< 100 nM
O=P(O)(O)CP(=O)(O)OC[C@H]1O[C@@H](n2ncc3c(NC4CCCC4)nc(Cl)nc32)[C@H](O)[C@@H]1O	< 100 nM
O=P(O)(O)CP(=O)(O)OC[C@H]1O[C@@H](n2cnc3c(NCc4ccccc4)nc(-c4ccccc4)nc32)[C@@H](F)[C@@H]1O	< 100 nM
O=P(O)(O)CP(=O)(O)OC[C@H]1O[C@@H](n2cnc3c(NCc4ccncc4)nc(Cl)nc32)[C@@H](F)[C@@H]1O	< 100 nM
CN(C)c1nc(NCc2ccccc2)c2ncn([C@@H]3O[C@H](COP(=O)(O)CP(=O)(O)O)[C@@H](O)[C@H]3O)c2n1	< 100 nM
C[C@@H](Nc1nc(Cl)nc2c1ccn2[C@@H]1O[C@H](COP(=O)(O)CP(=O)(O)O)[C@@H](O)[C@@H]1F)c1cccc(F)c1	< 100 nM
C[C@H](Nc1nc(Cl)nc2c1cnn2[C@@H]1O[C@H](COP(=O)(O)CP(=O)(O)O)[C@@H](O)[C@@H]1F)c1ccccc1	< 100 nM
CNc1nc(NCc2ccccc2)c2ncn([C@@H]3O[C@H](COP(=O)(O)CP(=O)(O)O)[C@@H](O)[C@H]3O)c2n1	< 100 nM
CC(C)OC(=O)OCOP(=O)(O)CP(=O)(OCOC(=O)OC(C)C)OC[C@H]1O[C@@H](n2ncc3c(NC4CCCC4)nc(Cl)nc32)[C@H](O)[C@@H]1O (stereo partly shown)	> 1000 nM
O=P(O)(O)CP(=O)(O)OC[C@H]1O[C@@H](n2cnc3c(NC4CCCC4)nc(C(F)(F)F)nc32)[C@@H](F)[C@@H]1O	< 100 nM
Nc1ncnc2c1ncn2[C@@H]1O[C@H](COP(=O)(O)CP(=O)(O)O)[C@@H](O)[C@H]1F	> 1000 nM
CN(Cc1ccccc1)c1nc(Cl)nc2c1cnn2[C@@H]1O[C@H](COP(=O)(O)CP(=O)(O)O)[C@@H](O)[C@H]1O	< 100 nM
O=P(O)(O)CP(=O)(O)OC[C@H]1O[C@@H](n2cnc3c(N4CCCC4)nc(Cl)nc32)[C@@H](F)[C@@H]1O	< 100 nM
O=P(O)(O)CP(=O)(O)OC[C@H]1O[C@@H](n2cnc3c(NCCc4ccccc4)nc(Cl)nc32)[C@@H](F)[C@@H]1O	< 100 nM
